The subject of assay [1] is primary human T-cells. Briefly: IL2 secretion measurements (24 h, CD3-stimulated T-cells, PBS counter screen). The format is cell-based. The conditions noted are these: for Emax IL2 (% activation): CD3 condition, normalised to DMSO (neutral) and 20 μM reference compound A1 = 100%; for EC50: Homo sapiens, T-cell, CD3-stimulated primary human T-cells, IL2 secretion, fitted sigmoidal curve, read-out: Tcell IL2 CD3 EC50. How it is done: (§1) As readouts for T-cell activation, 1L2 secretion after 24 hours and proliferation after 5 days was measured. Increases in IL2 secretion and proliferation upon compound treatment were assessed as the % of the maximum of reference compound A1. WO 2016/139181 discloses reference compound A1 as example 70. As a counter screen and to make sure that no unwanted TCR-independent activation was triggered, PBS conditions were run for all compounds.
Expanded primary human T-cells were thawed and cultured in RPMI 1640 (Gibco, #61870-010)+5% human serum (HS, Sigma, #H3667)+1 mM Sodium Pyruvate (Gibco, #11360-039)+50 μM 2-mercaptoethanol (Gibco, #31350-010) and 1× Pen-Strep (Life Technologies, #15140122) medium at density of 2 Mio/ml for 3 hours in 5% CO2, 37° C. and 95% humidity. For coating of plates, […] or PBS++ with CD3 antibody (concentration depending on donor and determined by CD3 titrations) was added 100 μl/well to Poly-D Lysine coated 96-well plates. Plates were sealed and incubated at room temperature for 3 hours on a table-top rocking platform. After incubation, plates were washed once with PBS−− and filled with 40 μl/well culture medium only. Compounds were then added (see next section) to medium only plates. After 3 hours of culturing the T-cells, cells were filtered through a cell strainer (Miltenyi Biotech, #130-041-407), counted again and concentration was adjusted to 1.25 Mio/ml.
Cells were then seeded 80 μl/well to the 40 μl/well including dispensed compounds according to plate layout. By adding cells, compounds were further diluted 1:3, and resulting in 100 k cells/120 μl/well. After 24 hours 40 μl of supernatant was collected carefully from the top while not disturbing the cells and transferred into a round bottom 96 well plate. Collected and frozen supernatant was used for detection of IL2 using the IL-2 Human ProQuantum Immunoassay Kit (Invitrogen) or using the Human IL-2 ELISA Kit (Thermo Fisher).
(§2) Compounds were added in a 5 or 6 pt dose response with the Tecan D300e Digital Dispenser, all conditions 3 times more concentrated than the end-concentration, since cells are added afterwards (80 μl cells to 40 μl prepared medium with treatment). The DR was starting at 20 μM or 10 μM final top concentration and a dilution factor of 3.333. The positive control was the reference compound A1 that was added in a dose response as well, additionally to 3 wells of only 20 μM representing the positive stimulator control. All wells were normalized with DMSO to a final concentration of 0.6% (0.2% end-concentration).
The immunoassay is done following the manufacturer's manual (Invitrogen, #A35603). Additional information: For the immunoassay, MicroAmp™ EnduraPlate™ Optical 384-Well plates are used. Frozen supernatant is thawed and centrifuged for 5 minutes at 1000×g, both steps at 4° C. After centrifugation, required sample amount is taken from the top, and in a separate LightCycler V-bottom plate (working plate) diluted with assay dilution buffer, dilution factor depending on the PBS or CD3 condition but at least 1:3. IL-2 standard and blanks are prepared in the same V-bottom plate, standard with a range of 0.0128-5000 pg/ml (extended version). After preparation, 5 μl of sample dilutions or standard/blanks are transferred to the optical 384-well plate (assay plate) and the 10 μl reaction protocol is being followed. For measurement, the QuantStudio 12K Flex system is used. Raw data is extracted and IL-2 concentrations are calculated with the Thermo Fisher online app (apps.thermofisher.com/apps/proquantum).
ELISA is done following the manufacturer's manual (Thermo Fisher Scientific, #88-7025-88). Additional information: For the ELISA Nunc MaxiSorp 96 well plates are used. Frozen supernatant is thawed and centrifuged for 5 minutes at 1000×g, both steps at 4° C. […]
On the technique in general: The purpose of a counterscreen is to sort out artefacts and off-target activity.

The test system of assay [2] is primary human T-cells. Briefly: Proliferation assay (5 days, CellTiter-Glo, CD3-stimulated T-cells). The following applies: for Emax proliferation (% activation): CD3 condition, normalised to DMSO (neutral) and 20 μM reference compound A1 = 100%; for EC50: Homo sapiens, T-cell, 120 h, CD3-stimulated primary human T-cells, 5 days, CellTiter-Glo, fitted sigmoidal curve, read-out: Tcell Proliferation CD3 EC50. The format is cell-based. How it is done: as §1
Expanded primary human T-cells are thawed and cultured in RPMI 1640 (Gibco, #61870-010)+5% human serum (HS, Sigma, #H3667)+1 mM Sodium Pyruvate (Gibco, #11360-039)+50 μM 2-mercaptoethanol (Gibco, #31350-010) and 1× Pen-Strep (Life Technologies, #15140122) medium at density of 2 Mio/ml for 3 hours in 5% CO2, 37° C. and 95% humidity. For coating of plates, PBS++ only or PBS++ with CD3 antibody (concentration depending on donor and determined by CD3 titrations) is added 100 μl/well to Poly-D Lysine coated 96-well plates. Plates are sealed and incubated at room temperature for 3 hours on a table-top rocking platform. After incubation, plates are washed once with PBS−− and filled with 40 μl/well culture medium only. Compounds are then added (see next section) to medium only plates. After 3 hours of culturing the T-cells, cells are filtered through a cell strainer (Miltenyi Biotech, #130-041-407), counted again and concentration is adjusted to 1.25 Mio/ml.
Cells are then seeded 80 μl/well to the 40 μl/well including dispensed compounds according to plate layout. By adding cells, compounds are further diluted 1:3, and resulting in 100 k cells/120 μl/well. After 48 hours 40 μl of supernatant is collected carefully from the top while not disturbing the cells. Cells are assessed for proliferation 5 days later by measuring […] using CellTiterGlo (Promega).
as §2
After 5 days, for detection of ATP which is directly proportional to the number of cells present per well, the CellTiter-Glo® 2.0 Reagent is used. After visual control for toxicity or precipitations of the tested compounds, the plates are equilibrated to room temperature for 45 minutes. CellTiter-Glo® 2.0 Reagent is equilibrated to room temperature as well. After equilibration, an equal amount of CellTiter-Glo reagent is added to the cells (80 μl/well) with an electronic multichannel pipette. Plates are placed on a rocking platform for 15 minutes at room temperature. After incubation, the bottom of the plates is sealed with backing tape. Luminescence is measured with PHERAstar FSX (interval time 0.5 sec, gain 3000, focal height 15 mm) and exported as CSV file for analysis in Genedata screener.
CD3 and PBS plates were analysed separately in Genedata Screener using Roche Normalization PCT_POS_CTRL with DMSO set as Neutral Control and 20 μM of the reference compound A1 set as Stimulator Control/100%.
For CD3 conditions EC50 and Emax of the fitted sigmoidal curve were reported. If no curve could be fitted, the EC50 was reported as blank field and the Emax was based on individual data points. […] Compounds which activate unstimulated cells (see IL2 measurements) or compounds which negatively affected viability were flagged.
(In ATP-based viability assays light output follows the ATP content of the culture.)

Consider `CC(C)(C)c1nnc(-c2ccc3c(c2)N(Cc2ccc(-c4nc(C(F)(F)F)no4)cc2)C(=O)[C@@H](N)CS3(=O)=O)o1` [Example 26, (3R)-3-amino-7-(5-tert-butyl-1,3,4-oxadiazol-2-yl)-1,1-dioxo-5-[[4-[3-(trifluoromethyl)-1,2,4-oxadiazol-5-yl]phenyl]methyl]-2,3-dihydro-1λ^6,5-benzothiazepin-4-one], for which, in the assay on primary human T-cells [1], the “Emax IL2 (% activation)” value worked out at 155 % activation and the EC50 came out at 1600 nM. Also, in the assay with primary human T-cells [2], the “Emax proliferation (% activation)” value stood at 184 % activation and the EC50 turned out to be 302 nM.

Consider `CC(C)(C)c1nnc(-c2ccc3c(c2)N(Cc2ccc(-c4nc(C5CC5)no4)cc2)C(=O)[C@@H](N)CS3(=O)=O)o1` [Example 29, (3R)-3-amino-7-(5-tert-butyl-1,3,4-oxadiazol-2-yl)-5-[[4-(3-cyclopropyl-1,2,4-oxadiazol-5-yl)phenyl]methyl]-1,1-dioxo-2,3-dihydro-1λ^6,5-benzothiazepin-4-one], for which, in the assay with primary human T-cells [1], the “Emax IL2 (% activation)” value came out at 156 % activation and the EC50 came out at 956 nM. Further, in the assay on primary human T-cells [2], the “Emax proliferation (% activation)” value turned out to be 208 % activation and the EC50 was found to be 844 nM.

Regarding `CC(C)(C)c1nnc(-c2ccc3c(c2)N(Cc2ccc(-c4cc(C(F)(F)F)on4)cc2)C(=O)[C@@H](N)CS3(=O)=O)o1` [Example 30, (3R)-3-amino-7-(5-tert-butyl-1,3,4-oxadiazol-2-yl)-1,1-dioxo-5-[[4-[5-(trifluoromethyl)isoxazol-3-yl]phenyl]methyl]-2,3-dihydro-1λ^6,5-benzothiazepin-4-one], in the assay with primary human T-cells [1], the “Emax IL2 (% activation)” value was 117 % activation and the EC50 came to 3510 nM. Moreover, in the assay on primary human T-cells [2], the “Emax proliferation (% activation)” value is on record as 139 % activation and the EC50 is 4360 nM.

For the compound `CC(C)(C)c1nnc(-c2ccc3c(c2)N(Cc2ccc(-c4cc(C(F)(F)F)no4)cc2)C(=O)[C@@H](N)CS3(=O)=O)o1` [Example 31, (3R)-3-amino-7-(5-tert-butyl-1,3,4-oxadiazol-2-yl)-1,1-dioxo-5-[[4-[3-(trifluoromethyl)isoxazol-5-yl]phenyl]methyl]-2,3-dihydro-1λ^6,5-benzothiazepin-4-one], in the assay with primary human T-cells [1], the “Emax IL2 (% activation)” value is given as 133 % activation and the EC50 was 906 nM. In addition, in the assay with primary human T-cells [2], the “Emax proliferation (% activation)” value is listed as 83 % activation and the EC50 amounted to 349 nM.

Regarding `CC(C)(C#N)c1nnc(-c2ccc3c(c2)N(Cc2ccc(-c4ccc(C(F)F)cn4)cc2)C(=O)[C@@H](N)CS3(=O)=O)o1` [Example 40, 2-[5-[(3R)-3-amino-5-[[4-[5-(difluoromethyl)-2-pyridyl]phenyl]methyl]-1,1,4-trioxo-2,3-dihydro-1λ^6,5-benzothiazepin-7-yl]-1,3,4-oxadiazol-2-yl]-2-methyl-propanenitrile], in the assay on primary human T-cells [1], the “Emax IL2 (% activation)” value is listed as 105 % activation and the EC50 stood at 3790 nM. Also, in the assay on primary human T-cells [2], the “Emax proliferation (% activation)” value stood at 118 % activation and the EC50 is 2480 nM.

For `N[C@H]1CS(=O)(=O)c2ccc(-c3nnc(C4(N)CCCCC4)o3)cc2N(Cc2ccc(-c3noc(C4CCC(F)(F)C4)n3)cc2)C1=O` (stereo partly drawn) [Example 44, (3R)-3-amino-7-[5-(1-aminocyclohexyl)-1,3,4-oxadiazol-2-yl]-5-[[4-[5-(3,3-difluorocyclopentyl)-1,2,4-oxadiazol-3-yl]phenyl]methyl]-1,1-dioxo-2,3-dihydro-1λ^6,5-benzothiazepin-4-one], in the assay with primary human T-cells [1], the “Emax IL2 (% activation)” value is given as 112 % activation and the EC50 came to 1040 nM. In addition, in the assay with primary human T-cells [2], the “Emax proliferation (% activation)” value amounted to 124 % activation and the EC50 worked out at 741 nM.

With `CC(C)(C#N)c1nnc(-c2ccc3c(c2)N(Cc2ccc(-c4nc(C5CC5)no4)cc2)C(=O)[C@@H](N)CS3(=O)=O)o1` [Example 139, 2-[5-[(3R)-3-amino-5-[[4-(3-cyclopropyl-1,2,4-oxadiazol-5-yl)phenyl]methyl]-1,1,4-trioxo-2,3-dihydro-1λ^6,5-benzothiazepin-7-yl]-1,3,4-oxadiazol-2-yl]-2-methyl-propanenitrile], in the assay with primary human T-cells [2], the “Emax proliferation (% activation)” value was found to be 93 % activation and the EC50 worked out at 1020 nM.

On to `N#CC1(c2nnc(-c3ccc4c(c3)N(Cc3ccc(-c5ccc(OC(F)(F)F)cn5)cc3)C(=O)[C@@H](N)CS4(=O)=O)o2)CCOC1` (stereo partly drawn) [Example 177, 3-[5-[(3R)-3-amino-1,1,4-trioxo-5-[[4-[5-(trifluoromethoxy)-2-pyridyl]phenyl]methyl]-2,3-dihydro-1λ^6,5-benzothiazepin-7-yl]-1,3,4-oxadiazol-2-yl]tetrahydrofuran-3-carbonitrile], for which, in the assay with primary human T-cells [2], the “Emax proliferation (% activation)” value was 101 % activation and the EC50 was found to be 806 nM.

With `N[C@H]1CS(=O)(=O)c2ccc(-c3nnc(C4(N)CC(F)(F)C4)o3)cc2N(Cc2ccc(-c3ccc(OC(F)(F)F)cn3)cc2)C1=O` [Example 179], in the assay on primary human T-cells [2], the “Emax proliferation (% activation)” value is 106 % activation and the EC50 came to 936 nM.

On to `CN1CCC(C#N)(c2nnc(-c3ccc4c(c3)N(Cc3ccc(-c5ccc(OC(F)(F)F)cn5)cc3)C(=O)[C@@H](N)CS4(=O)=O)o2)CC1` [Example 180, 4-[5-[(3R)-3-amino-1,1,4-trioxo-5-[[4-[5-(trifluoromethoxy)-2-pyridyl]phenyl]methyl]-2,3-dihydro-1λ^6,5-benzothiazepin-7-yl]-1,3,4-oxadiazol-2-yl]-1-methyl-piperidine-4-carbonitrile], for which, in the assay with primary human T-cells [2], the “Emax proliferation (% activation)” value was 102 % activation and the EC50 is 651 nM.

Values taken from patent publication US20260138976A1 (Hoffmann-La Roche Inc., priority 2022, published 2026).
